In US20080292627A1, “Compositions and Methods for Treating Mood and Anxiety Disorders” (THE BOARD OF TRUSTEES OF THE UNIVERSITY OF ILLINOIS, priority 2005, published 2008):

Key:
[1] = system: tubulin; conditions: cited from earlier work
[2] = system: tubulin; test: SPOT membrane peptide array, tubulin binding to immobilized Gsα-derived peptides; parameters: species or system Ovine; conditions: equimolar Gsα (150 nM), 37° C., 1 hour; SPOT membrane 1
Excerpt: Peptides were synthesized on to a cellulose membrane with PEG spacer (8×12 cm^2) (AIMS Scientific Products, Braunschweig, Germany) via the C-terminal amino acid in sequential spots by the use of a SPOT synthesis kit (SIGMA genosys, St. Louis, Mo.) (Frank, J. Immunol. Methods 267: 13-26, 2002; Frank, Tetrahedron 48: 9217-9232, 1992). The peptides corresponded to the amino acid sequence of Gsα (Genbank accession number P04895, homo sapiens, Gsα long form; SEQ ID NO: 15), which was divided into overlapping peptides (12 amino acids in length with 7 amino acid overlap between sequential peptide, 73 total spots). Spot 1 corresponded to amino acids 1-12 and Spot 2 corresponded to residues 6-17 in the primary amino acid sequence (SEQ ID NO: 15), etc. […]
Ovine brain tubulin was prepared as previously described (Shelanski et al., Proc. Natl. Acad. Sci. USA. 70: 765-768, 1973). […] Purity of the prepared tubulin, as determined by SDS gel electrophoresis, was always greater than 95%. […] Protein concentrations were determined by Coomasie Blue binding (BioRad Protein Assay) with Bovine Serum Albumin as a standard (Bradford, Anal. Biochem. 72: 248-254, 1976). […]

Substance: Gsα: stimulatory G protein α subunit of adenylyl cyclase
- binding to tubulin (in words) [1]: bind with a high affinity
- Kd ([1]; read-out: KD of tubulin binding): ~0.13 µM
- effect of prior incubation of tubulin with Gsα on tubulin binding to the immobilized peptides [2]: prevented tubulin from binding
